What was measured:
[1] = tested on: Tick-borne encephalitis virus; test: Antiviral activity against TBEV Absettarov infected in PEK cells preincubated simultaneously with cells and virus for 1 hr with shaking every 15 to 20 mins measured after 6 days by gentian violet-staining based assay; assay type: functional, organism-based
[2] = Cytotoxicity against PEK cells after 24 hrs; assay type: cell-based, Sus scrofa; settings: pig
[3] = Cytotoxicity against PEK cells after 7 days; assay type: cell-based, Sus scrofa; settings: pig

Compound | EC50 [1] [µM] | CC50 at 24 h [2] [µM] | CC50 at 168 h [3] [µM]
O=c1[nH]c(=O)n([C@H]2C[C@H](O)[C@@H](CO)O2)cc1-n1cc(-c2ccc3c4cccc5cccc(c6cccc2c63)c54)nn1 | 0.038 | > 50 | > 50
O=c1[nH]c(=O)n([C@@H]2O[C@H](CO)[C@@H](O)[C@H]2O)cc1-n1cc(-c2ccccc2)nn1 | > 50 | > 50 | > 50
O=c1[nH]c(=O)n([C@@H]2O[C@H](CO)[C@@H](O)[C@H]2O)cc1-n1cc(-c2ccc3c4cccc5cccc(c6cccc2c63)c54)nn1 | 0.031 | > 50 | > 50
OCCn1cc(-c2cc3cccc4c5cccc6cccc(c(c2)c34)c65)nn1 | 0.023 | > 50 | > 50
O=c1[nH]c(=O)n([C@H]2C[C@H](O)[C@@H](CO)O2)cc1-n1cc(-c2cc3cccc4c5cccc6cccc(c(c2)c34)c65)nn1 | 0.06 | > 50 | > 50
OCCn1cc(-c2ccc3c4cccc5cccc(c6cccc2c63)c54)nn1 | 0.1 | > 50 | > 50
O=c1[nH]c(=O)n([C@@H]2O[C@H](CO)[C@@H](O)[C@H]2O)cc1-n1cc(-c2cc3cccc4c5cccc6cccc(c(c2)c34)c65)nn1 | 0.06 | > 50 | > 50
O=c1[nH]c(=O)n([C@H]2C[C@H](O)[C@@H](CO)O2)cc1-n1cc(-c2ccccc2)nn1 | > 50 | > 50 | > 50

Reference: ChEMBL document CHEMBL4190244, “Perylenyltriazoles inhibit reproduction of enveloped viruses” (Eur J Med Chem, 2017)
